“Also recorded” adds a separate entry of the source.
Legend:
[1] = molecular target: T1, Pim1 kinase (Homo sapiens, UniProt P11309); assay: In vitro Pim1 kinase inhibition assay (ADP-Glo); format: biochemical; conditions: n = 3
T1 construct: purchased Promega Corporation, Madison, WI
Description: ADP-Glo^TM kinase assay kit was used to evaluate Pim1 kinase inhibition purchased from Promega Corporation, Madison, WI. At each of the kit low-volume well, the tested compounds were dissolved in DMSO at each of the tested concentration range and 1 µL was withdrawn and mixed with 2 µL Pim1 kinase and 2 µL of substrate/ATP mix then incubated at room temperature for 60 min. 5 µL of ADP-Glo reagent was added and incubated for another 40 min at room temperature. Finally 10 µL of kinase detection reagents was added and incubated for 30 min and the luminescence was recorded. Pim1 kinase buffer was prepared by mixing 40 mM Tris at pH 7.5, 20 mM MgCl2, 0.1 mg/mL BSA and 50 µM DTT.

[2] = Calculation of the lethal dose 50 (LD50), fixed-dose approach; conditions: male, Swiss albino, mouse, in vivo, ip, mice, single dose
Description: The LD50 of compounds 3b and 8b were determined using a fixed-dose approach; 12 male Swiss albino mice were divided into four groups (three mice per group) to calculate the LD50. […]. By giving these concentrations once to the animals and monitoring the signs of poisoning and deaths within 24 h, the lethal dose was identified. The animals were monitored continuously for the first two hours and then every four hours after that. After 24 h, all of animal deaths and survival appeared. […]. […] The dose used in the experiment was 1/10 from the LD50.

[3] = tested on: Breast MCF10A normal cell line; assay: Normal cell line cytotoxicity using MCF10a (MTT); format: cell-based, human; conditions: 48 h; for IC50: Homo sapiens, MCF-10A; for Selectivity Index: MCF10A normal versus T47D cancer cells
Description: In vitro toxicology assay kit (MTT based) stock no. TOX-1 7H258 was purchased from SIGMA (St. Louis, MO). About 3 ml of the medium with the normal cell lines in log phase were added in multiwall plate without phenol red and serum. A volume of reconstituted MTT (#M-5655) equivalent to 10% of the culture medium volume was added then incubated for 2 h. The resulted fomazan crystals were dissolved with occasional shaking by equivalent volume of MTT solubilising solution (#M-8910). The final solution absorbance was measured spectrophotometry at wavelength 570 nm. Blank experiment was performed using medium only without cells.

[4] = tested on: Ehrlich solid carcinoma; assay: In vivo cytotoxicity study, Ehrlich solid carcinoma model; design: species or system male Swiss albino mice; conditions: i.p. once weekly for 3 weeks; for Histopathological examination of Ehrlich solid tumour (H&E): mice; for TNF-α level (ELISA) / malondialdehyde (MDA) level (ELISA): serum, Ehrlich solid tumour mice
Description: The National Cancer Institute (Cairo, Egypt) provided the 48 male Swiss albino mice utilised in this study, which ranged in weight from 25 to 30 g. Prior to the experiment, mice were given a week to settle into their new environment. A constant 23 °C temperature, 60% humidity, and a 12/12 light/dark cycle were maintained in stainless steel cages. Each cage housed five mice with a plenty of nourishing food and refreshing water were served. This in vivo study was approved from the ethical committee of the Azhar University, Faculty of Medicine, Egypt.
A female mouse with an 8-day-old ascetic tumour was obtained from the National Cancer Institute on the day of induction, and Ehrlich ascites carcinoma (EAC) cells were isolated from the ascetic fluid of the animal (day 0). Then, regular saline was used to dilute the ascetic fluid (1:10). Each mouse received a subcutaneous injection of 0.2 ml of ascetic fluid containing 2.5 × 10^6 EAC cells in the right thigh of the hind limb to induce Ehrlich solid-phase cancer.
On day 11 following ESC inoculation, tumour formation was observed as a solid mass expanding in the right thigh of each animal. The mice were then randomly divided into four groups (n = 6) • Group (1) acted as the […] control group and mice received an i.p. DMSO (2 mg/kg/once weekly) for 3 weeks. • Group (2) (Doxorubicin Group) mice received an i.p. dose of doxorubicin (2 mg/kg/once weekly) for 3 weeks. • Group (3) mice were given an i.p. dose of 8b compound (1 mg/kg/once weekly) for 3 weeks, • Group (4) mice were given an i.p. dose of 3b compound (1.4 mg/kg/once weekly) for 3 weeks.
Two days after the last dose of therapy, blood was drawn from the mice’s orbital canthus, and serum was separated and stored at −80 °C for upcoming biochemical investigations. Following the cervical dislocation method of euthanasia, tumour samples from each mouse were collected and preserved in neutral buffered formalin at a 10% concentration for immunohistochemistry and histopathology studies. Histological preparations were performed according to the reported method. Slices of Ehrlich tumour were cut to a thickness of 3–4 mm before being fixed in 10% neutral buffered formalin (10% NBF), dehydrated through a series of ethanol solutions, cleaned in xylene, and finally embedded in paraffin. To examine the overall tissue architecture, sections ([…]) thick were cut from paraffin blocks using a microtome and stained with haematoxylin and eosin. We used a Leica microscope (CH9435 Hee56rbrugg) to look at H&E-stained tissue sections (Leica Microsystems, Switzerland).
The avidin–biotin–peroxidase complex (ABC) method was used to do immunohistochemistry on paraffin sections that were put on positively charged slides. Rabbit Anti-VEGF Receptor 2 Polyclonal Antibody (Elabscience Cat# E-AB-63481, Dil.: 1:100) and Rabbit Monoclonal anti-caspase-3 antibody, active (cleaved) form (Sigma Aldrich Catalog # AB3623)[41], were utilised during this IHC assessment. Each group’s sections were treated with the previously specified antibodies, after which the ABC technique reagents (Vectastain ABC-HRP kit, Vector labs) were applied. To locate the antigen–antibody combination, marker expression was stained with diaminobenzidine (DAB, manufactured by Sigma) and labelled with peroxidase. In order to conduct negative controls, non-immune serum was substituted for the primary or secondary antibodies. IHC-stained sections were assessed using a Leica (CH9435 Hee56sbrugg) microscope (Leica Microsystems, Switzerland).
Using one-way analysis of variance (ANOVA) followed by Tukey’s post-hoc test, the difference between experimental groups was analysed. All data are presented as mean ± standard deviation (SD). All comparisons were judged statistically significant when the p values ≤ 0.05. ImageJ (NIH Image J system, Bethesda, MD) was used for the analysis of immunohistochemistry photos.

[5] = tested on: breast cancer T47D cell line; assay: Breast T47D cancer cell cycle flowcytometry; format: cell-based
Description: After treatment with test compounds for 48 h and paclitaxel (1 µM) for 48 h as positive control, cells (10^5 cells) are collected by trypsinization and washed twice with ice-cold PBS (pH 7.4). Cells are re-suspended in two millilitres of 60% ice-cold ethanol and incubated at 4 °C for 1 h for fixation. Fixed cells are washed twice again with PBS (pH 7.4) and re-suspended in 1 ml of PBS containing 50 µg/mL RNAase A and 10 µg/mL propidium iodide (PI). After 20 min of incubation in dark at 37 °C, cells are analysed for DNA contents using flow cytometry analysis using FL2 (λex/em 535/617 nm) signal detector (ACEA Novocyte™ flowcytometer, ACEA Biosciences Inc., San Diego, CA). For each sample, 12,000 events are acquired. Cell cycle distribution is calculated using ACEA NovoExpress™ software (ACEA Biosciences Inc., San Diego, CA)[36].

[6] = Ehrlich solid tumour tissue, 8b 1 mg/kg, 3b 1.4 mg/kg, doxorubicin 2 mg/kg
[7] = 8b 1 mg/kg, 3b 1.4 mg/kg, doxorubicin 2 mg/kg

T1 sequence (P11309 whole entry): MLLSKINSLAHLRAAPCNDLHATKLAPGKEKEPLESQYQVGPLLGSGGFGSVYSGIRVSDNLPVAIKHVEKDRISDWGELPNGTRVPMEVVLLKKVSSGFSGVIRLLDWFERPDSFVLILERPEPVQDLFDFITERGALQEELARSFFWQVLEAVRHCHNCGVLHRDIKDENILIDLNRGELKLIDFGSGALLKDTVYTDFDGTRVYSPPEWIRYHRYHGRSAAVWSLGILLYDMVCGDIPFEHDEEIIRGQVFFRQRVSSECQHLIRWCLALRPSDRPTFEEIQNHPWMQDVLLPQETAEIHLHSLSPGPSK

| Structure (SMILES) | IC50 [1] | LD50 at 24 h [2] | IC50 [3] | Selectivity Index [3] | VEGF expression by immunohistochemistry [4, 6] | Histopathological examination of Ehrlich solid tumour (H&E) [4, 7] | TNF-α level (ELISA) [4] | malondialdehyde (MDA) level (ELISA) [4] | Percentage of breast T47D cells, G0/G1 Phase ([5]; 48 h incubation) | Percentage of breast T47D cells, Pre G1 Phase ([5]; 48 h incubation) | Percentage of breast T47D cells, S Phase ([5]; 48 h incubation) | G2 phase cells lower than the control by ([5]; relative to untreated control) | pre-G1 phase cells higher than the untreated control by ([5]; relative to untreated control) | caspase-3 expression by immunohistochemistry [4, 6] | Percentage of breast T47D cells, G2 Phase ([5]; 48 h incubation) | S phase cells higher than the control by ([5]; relative to untreated control) |
| --- | --- | --- | --- | --- | --- | --- | --- | --- | --- | --- | --- | --- | --- | --- | --- | --- |
| c1ccc(-c2csc(Nc3cccc(Nc4nc(-c5ccccc5)cs4)c3)n2)cc1 [6a, N^1,N^3-bis(4-phenylthiazol-2-yl)benzene-1,3-diamine] | 2020 nM | – | – | – | – | – | – | – | – | – | – | – | – | – | – | – |
| CC(=O)c1sc(Nc2cccc(Nc3nc(C)c(C(C)=O)s3)c2)nc1C [3b, 1,1’-(2,2’-(1,3-Phenylenebis(azanediyl))bis(4-methylthiazole-5,2-diyl))diethanone] | 320 nM | 14 mg/kg | 105000 nM | 18.25 | moderate to low expression of VEGF; also recorded: moderate VEGF positivity; also recorded: down-regulation of VEGF | substantial number of aggregated neoplastic cells with their typical structure were surrounded by small patches of necrotic muscle tissue; also recorded: aggregates of neoplastic cells with their typical structure that surrounded by small patches of necrotic muscle tissue | no statistical difference was detected between compounds 8b and 3b; also recorded: down-regulation of VEGF and TNF α | did not significantly vary from the untreated control group | 66.5% | 2.6% | 18.7% | 58% | 78% | – | – | – |
| Fc1ccc(-c2cs/c(=N\c3ccccc3)n2-c2cccc(-n3c(-c4ccc(F)cc4)cs/c3=N\c3ccccc3)c2)cc1 [8b, N,N’-(3,3’-(1,3-phenylene)bis(4–(4-fluorophenyl)thiazole-3(3H)-yl-2(3H)-ylidene))dianiline] | 240 nM | 10 mg/kg | 53300 nM | 5.44 | low expression of VEGF; also recorded: no appreciable VEGF immunoreactivity; also recorded: down-regulation of VEGF | minimal infiltration of neoplastic cells and a significant reduction in their quantity; also recorded: inhibited the growth of Ehrlich solid tumours in mice | no statistical significant difference between DOX and 8b; also recorded: down-regulation of VEGF and TNF α | elevation of malondialdehyde levels | 51.7% | 1.9% | 26.5% | – | – | highest significant increment in caspase-3 expression; also recorded: significant positive expression of caspase-3; also recorded: up-regulation of caspase-3 | 25.9% | 77.8% |
| Fc1ccc(-c2csc(Nc3cccc(Nc4nc(-c5ccc(F)cc5)cs4)c3)n2)cc1 [6b, N^1,N^3-bis(4–(4-fluorophenyl)thiazol-2-yl)benzene-1,3-diamine] | 2950 nM | – | – | – | – | – | – | – | – | – | – | – | – | – | – | – |

From article PMC9897788, “Design, synthesis and cytotoxic evaluation of novel bis-thiazole derivatives as preferential Pim1 kinase inhibitors with in vivo and in silico study” (Journal of Enzyme Inhibition and Medicinal Chemistry, 2023)
